Measured values: patent US7208153B2, “Method for the improvement of neuronal regeneration” (Neuraxo Biopharmaceuticals GmbH, priority 1997, dated 2007)
“Also recorded” adds a separate entry of the source.

Key:
[1] = tested on: transected postcommissural fornix axons; assay: Regeneration of transected postcommissural fornix axons across the lesion site (NF immunohistochemistry, anterograde tracing, electron microscopy); type: in vivo, Wistar rats
[2] = tested on: basal membrane formation (collagen IV) in the lesion site; assay: Lesion-induced basal membrane (collagen IV) deposition after postcommissural fornix transection, immunohistochemistry; type: in vivo, Wistar rats
Protocol: In an effort to modulate postlesion BM deposition, either polyclonal antibodies against collagen IV (anti-Coll IV; n=14) or the iron chelator a, a′-dipyridyl (DPY; n=9) were injected locally into the lesion center immediately after transection. […] (13) and enhanced procollagen degradation (14). Control animals received a PBS injection (n=9) or were sham operated (n=3). Basal membrane formation was studied in response to antibody and drug treatment using immunohistochemical methods. […] At 2 weeks after lesion+injection only a very small number of Coll-immunreactive structures perpendicular to the tract course had developed (FIG. 1e, f).
Surgery. The left postcommissural fornix of 42 Wistar rats (180–210 g) was transected stereotactically at a distance of about 1 mm proximal to the target, the mammillary body, using a Scouten wire knife as described previously (9). The completeness of transection was confirmed by serial reconstruction of the lesion site for each of the animals. Immediately after transection animals received a topical application (1.6 μl) of either polyclonal antibodies against collagen, IV (anti-Coll IV, Biogenex, 50–100 μg/ml, n=14) or the iron chelator a, a′-dipyridyl (DPY, 1–10 mM, n=9). Substances were pressure injected (injection time 10 min) directly into the lesion site via a micropipette coupled to a microsyringe. Controls received equal amounts of phosphate-buffered saline (n=9) or sham operation (n=3).
Immunohistochemical staining. After a survival time of 4 days (d), 6 d, 2 weeks (w), 4 w and 6 w after surgery brains were removed, frozen in isopentan (−50/−60° C.) and cut into serial sagittal 10 μm thick sections. […]

[3] = tested on: Na+-dependent action potentials of fornix fibers; design: species or system rats

c1ccc(-c2ccccn2)nc1 [DPY, a, a′-dipyridyl]
regeneration of transected fornix fibers across the lesion site (NF-immunohistochemistry) ([1]; 6 weeks postsurgery, FIG. 2): fibers traverse the former lesion site | elongation of fornix axons into and across the lesion center ([1]; between 2 and 4 weeks after lesion+injection, immunocytochemical staining): large numbers of axons entered and traversed the lesion center | lesion-induced BM deposition ([2]; local injection): significantly reduced | Coll-immunopositive laminae and blood vessels in the lesion center and the fornix stumps ([2]; single local injection immediately after transection, anti-Coll IV 80–160 ng or DPY 1.6–16 μmol, all examined survival time points): massive and specific reduction | Collagen IV deposition in the lesion site ([2]; two weeks postsurgery, FIG. 1e, f): markedly reduced

NC1=N[C@H](O)[C@H]2[C@H]3O[C@]4(O)O[C@@H]([C@@H](O)[C@@]2(N1)[C@@H]4O)[C@]3(O)CO [Tetrodotoxin]
stimulus-evoked extracellular response [3]: blocks the stimulus-evoked response; also recorded: blocked
